Measurements from BigSolDB 2.1.

O=Cc1ccc(O)c(Br)c1
solubility (mole fraction)
Settings | 278.15 K | 283.15 K | 288.15 K | 293.15 K | 298.15 K | 303.15 K | 308.15 K | 313.15 K | 318.15 K | 323.15 K
in 1,4-dioxane | – | – | 0.016 | 0.0188 | 0.022 | 0.0255 | 0.0297 | 0.0345 | 0.0402 | 0.0471
in DMF | 0.0129 | 0.0148 | 0.0171 | 0.02 | 0.0236 | 0.0275 | 0.0321 | 0.0372 | 0.0426 | 0.0488
in DMSO | – | – | – | 0.0177 | 0.0202 | 0.0235 | 0.0278 | 0.0332 | 0.0396 | 0.0467
in acetonitrile | 0.00714 | 0.00815 | 0.00947 | 0.0111 | 0.013 | 0.0152 | 0.0179 | 0.0207 | 0.0238 | 0.0273
in cyclohexane | – | 0.000283 | 0.000369 | 0.000478 | 0.000609 | 0.000766 | 0.000949 | 0.00115 | 0.00139 | 0.00167
in ethanol | 0.00755 | 0.00852 | 0.00981 | 0.0116 | 0.0137 | 0.0161 | 0.0188 | 0.0219 | 0.0254 | 0.0293
in ethyl acetate | 0.00956 | 0.011 | 0.0127 | 0.015 | 0.0176 | 0.0209 | 0.0244 | 0.0287 | 0.0332 | 0.0384
in ethylene glycol | 0.00584 | 0.00666 | 0.00772 | 0.00903 | 0.0107 | 0.0126 | 0.0149 | 0.0177 | 0.0211 | 0.0252
in isobutanol | 0.00978 | 0.0112 | 0.0131 | 0.0155 | 0.0183 | 0.0215 | 0.0251 | 0.0293 | 0.0336 | 0.0386
in isopropanol | 0.0079 | 0.00892 | 0.0104 | 0.0123 | 0.0144 | 0.0171 | 0.0201 | 0.0235 | 0.0272 | 0.0317
in methanol | 0.00568 | 0.00645 | 0.00751 | 0.00881 | 0.0103 | 0.0121 | 0.0142 | 0.0165 | 0.019 | 0.0221
in n-butanol | 0.0106 | 0.0122 | 0.0144 | 0.0168 | 0.0197 | 0.023 | 0.0269 | 0.0313 | 0.0364 | 0.0423
in n-octanol | 0.012 | 0.0138 | 0.0162 | 0.0192 | 0.0226 | 0.0267 | 0.0314 | 0.0365 | 0.0427 | 0.0498
in n-pentanol | 0.0115 | 0.0132 | 0.0153 | 0.0181 | 0.0215 | 0.0252 | 0.0295 | 0.0343 | 0.0401 | 0.0467
in n-propanol | 0.00865 | 0.01 | 0.0117 | 0.0138 | 0.0162 | 0.0191 | 0.0225 | 0.0264 | 0.0308 | 0.0361
in water | 5.93e-05 | 7.11e-05 | 9.02e-05 | 0.000116 | 0.00015 | 0.000196 | 0.00025 | 0.000314 | 0.000395 | 0.000493
